Measurements taken from PMC9822074, “Triterpenic Acid Amides as Potential Inhibitors of the SARS-CoV-2 Main Protease” (Molecules, 2022).

What follows are molecules tested against T1, SARS-CoV-2 main protease (Mpro, 3CLpro) (Severe acute respiratory syndrome coronavirus 2, UniProt P0DTD1) (assay: FRET peptide cleavage assay).
T1 construct: gene rep
Type: biochemical
Excerpt: FRET peptide cleavage assay on SARS-CoV-2 main protease (Mpro, 3CLpro)

SMILES	IC50 [µM]
C=C(C)[C@@H]1CC[C@]2(C(=O)NCCOc3ccc(CCOc4ccc(C[C@H](OCC)C(=O)O)cc4)cc3)CC[C@]3(C)[C@H](CC[C@@H]4[C@@]5(C)CCC(=O)C(C)(C)[C@@H]5CC[C@]43C)[C@@H]12 [1a]	100 ± 5
CCO[C@@H](Cc1ccc(OCCc2ccc(OCCNC(=O)[C@]34CC[C@@H](C(C)C)[C@@H]3[C@H]3CC[C@@H]5[C@@]6(C)CCC(=O)C(C)(C)[C@@H]6CC[C@@]5(C)[C@]3(C)CC4)cc2)cc1)C(=O)O [1b]	100 ± 5
CCO[C@@H](Cc1ccc(OCCc2ccc(OCCNC(=O)[C@]34CC[C@@H](C)[C@H](C)[C@H]3C3=CC[C@@H]5[C@@]6(C)CC[C@H](O)C(C)(C)[C@@H]6CC[C@@]5(C)[C@]3(C)CC4)cc2)cc1)C(=O)O [1d]	100 ± 5
CCO[C@@H](Cc1ccc(OCCc2ccc(OCCNC(=O)[C@]34CC[C@@H](C)[C@H](C)[C@H]3C3=CC[C@@H]5[C@@]6(C)C[C@@H](O)[C@H](O)C(C)(C)[C@@H]6CC[C@@]5(C)[C@]3(C)CC4)cc2)cc1)C(=O)O [1e]	25 ± 3
